Laboratory results reported in BindingDB's records for doi:10.1016/S0960-894X(01)80506-0 (n/a, 1994).

Key:
Beta-lactamase TEM = Beta-lactamase TEM (Escherichia coli, UniProt P62593); assay: Concentration required for its inhibitory activity against Escherichia coli JT4(TEM1) class A beta-lactamase
Beta-lactamase [1] = molecular target: Beta-lactamase (Pseudomonas aeruginosa (strain ATCC 15692 / DSM 22644 / CIP 104116 / JCM 14847 / LMG 12228 / 1C / PRS 101 / PAO1), UniProt P24735); assay: Concentration required for its inhibitory activity against Pseudomonas aeruginosa class C beta-lactamase
Beta-lactamase (Pseudomonas aeruginosa (strain ATCC 15692 / DSM 22644 / CIP 104116 / JCM 14847 / LMG 12228 / 1C / PRS 101 / PAO1), UniProt P24735), sequence (P24735 whole entry): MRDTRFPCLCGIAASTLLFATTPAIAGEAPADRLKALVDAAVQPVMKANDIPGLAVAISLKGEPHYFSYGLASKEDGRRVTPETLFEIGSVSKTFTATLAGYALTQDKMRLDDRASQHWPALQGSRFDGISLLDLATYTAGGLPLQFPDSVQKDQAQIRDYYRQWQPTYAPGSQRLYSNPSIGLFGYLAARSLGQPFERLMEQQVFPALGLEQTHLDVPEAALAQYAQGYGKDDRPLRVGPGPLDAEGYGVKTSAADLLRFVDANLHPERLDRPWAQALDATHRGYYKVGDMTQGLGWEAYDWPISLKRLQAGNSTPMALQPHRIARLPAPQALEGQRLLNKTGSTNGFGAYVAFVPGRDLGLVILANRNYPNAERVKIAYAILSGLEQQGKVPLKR

Beta-lactamase [2] = molecular target: T1, Beta-lactamase (Proteus mirabilis, UniProt P30897); assay: Concentration required for its inhibitory activity against Proteus mirabilis C889 class A beta-lactamase
T1 sequence (P30897 whole entry): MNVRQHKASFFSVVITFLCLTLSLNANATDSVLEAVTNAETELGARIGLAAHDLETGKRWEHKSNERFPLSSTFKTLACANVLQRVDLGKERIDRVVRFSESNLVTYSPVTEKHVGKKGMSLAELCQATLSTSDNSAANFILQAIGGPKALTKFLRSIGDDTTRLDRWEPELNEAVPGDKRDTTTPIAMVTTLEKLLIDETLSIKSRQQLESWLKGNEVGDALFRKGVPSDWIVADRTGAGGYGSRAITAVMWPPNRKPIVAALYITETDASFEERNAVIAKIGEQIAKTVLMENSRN

Beta-lactamase [3] = molecular target: T2, Beta-lactamase (Escherichia coli, UniProt Q2V0Y6); assay: Concentration required for its inhibitory activity against Escherichia coli K12(PSE4) class A beta-lactamase
T2 sequence (Q2V0Y6 whole entry): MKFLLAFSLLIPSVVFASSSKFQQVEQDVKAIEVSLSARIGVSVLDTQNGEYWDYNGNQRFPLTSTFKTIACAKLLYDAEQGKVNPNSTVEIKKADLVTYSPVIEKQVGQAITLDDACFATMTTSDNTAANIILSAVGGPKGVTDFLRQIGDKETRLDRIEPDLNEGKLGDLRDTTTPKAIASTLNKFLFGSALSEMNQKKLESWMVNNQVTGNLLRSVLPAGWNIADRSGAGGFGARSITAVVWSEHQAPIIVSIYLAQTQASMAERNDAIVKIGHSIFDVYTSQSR

Beta-lactamase OXA-1 = Beta-lactamase OXA-1 (Escherichia coli, UniProt P13661); assay: Concentration required for its inhibitory activity against Escherichia coli K12(OXA1) class D beta-lactamase
Beta-lactamase OXA-1, sequence (P13661 whole entry): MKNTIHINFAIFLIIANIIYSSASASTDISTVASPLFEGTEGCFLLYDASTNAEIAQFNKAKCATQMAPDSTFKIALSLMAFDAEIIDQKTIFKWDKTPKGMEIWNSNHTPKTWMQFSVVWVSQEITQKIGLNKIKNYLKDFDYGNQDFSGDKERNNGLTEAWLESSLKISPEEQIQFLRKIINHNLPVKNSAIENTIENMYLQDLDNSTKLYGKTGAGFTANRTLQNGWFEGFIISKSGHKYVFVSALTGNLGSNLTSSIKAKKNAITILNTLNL

Beta-lactamase [4] = molecular target: Beta-lactamase (Enterobacter cloacae, UniProt P05364); assay: Concentration required for its inhibitory activity against Enterobacter cloacae P99 class C beta-lactamase
Beta-lactamase (Enterobacter cloacae, UniProt P05364), sequence (P05364 whole entry): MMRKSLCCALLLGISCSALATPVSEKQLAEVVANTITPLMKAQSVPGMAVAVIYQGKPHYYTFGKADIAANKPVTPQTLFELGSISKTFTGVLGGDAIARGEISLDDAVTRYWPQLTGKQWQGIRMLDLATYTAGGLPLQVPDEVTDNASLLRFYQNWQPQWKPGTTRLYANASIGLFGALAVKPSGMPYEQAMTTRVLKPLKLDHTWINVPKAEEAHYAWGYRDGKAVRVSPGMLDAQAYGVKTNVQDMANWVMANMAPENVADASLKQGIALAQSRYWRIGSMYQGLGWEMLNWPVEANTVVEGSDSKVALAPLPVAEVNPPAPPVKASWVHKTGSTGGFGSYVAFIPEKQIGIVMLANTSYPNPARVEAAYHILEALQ

Beta-lactamase TEM, sequence (P62593 whole entry): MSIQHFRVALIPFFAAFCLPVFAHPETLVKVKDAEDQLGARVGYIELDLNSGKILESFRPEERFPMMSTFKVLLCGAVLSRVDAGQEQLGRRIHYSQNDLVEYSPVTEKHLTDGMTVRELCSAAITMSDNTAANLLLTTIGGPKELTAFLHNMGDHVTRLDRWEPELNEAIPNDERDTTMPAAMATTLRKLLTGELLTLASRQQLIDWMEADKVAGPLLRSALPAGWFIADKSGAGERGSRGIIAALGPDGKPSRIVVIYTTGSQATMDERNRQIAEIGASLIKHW

Row | Compound | IC50 (Beta-lactamase TEM) [µM] | IC50 (Beta-lactamase [1]) [µM] | IC50 (Beta-lactamase [2]) [µM] | IC50 (Beta-lactamase [3]) [µM] | IC50 (Beta-lactamase OXA-1) [µM] | IC50 (Beta-lactamase [4]) [µM]
1 | CCCCCCCCCCCCCCCc1cccc(OC)c1C(=O)O | 2.2 | 30.3 | 60.6 | 1.65 | > 91 | 6.89
2 | C=CC/C=C\C/C=C\CCCCCCCc1cccc(O)c1C(=O)O [6-[8(Z),11(Z),14-pentadecatrienyl]salicylic acid] | 2.33 | 21 | 90.5 | 3.21 | 72.9 | 4.08
3 | CCCCCCCCCCc1cccc(O)c1O | – | – | – | – | – | 83.8
4 | CCCCCCCCCCCCCCCCCc1cccc(O)c1C(=O)O | 5.04 | 24.1 | 22 | 1.85 | 77 | 2.65
5 | CCCCCCCCc1cccc(O)c1C(=O)O | – | – | 15.5 | 63.9 | – | –
6 | CCCCCCCCCCc1ccccc1C(=O)O | 68.6 | – | – | – | – | –
7 | O=C(O)[C@H]1/C(=C/CO)O[C@@H]2CC(=O)N21 [antibiotic MM 14151] | – | – | – | – | 1.75 | –
8 | CC/C=C\C/C=C\C/C=C\CCCCCCCc1cccc(O)c1C(=O)O | 13.4 | – | – | 26.9 | – | 45.8
9 | CCC(C)CCCCCCCCCCCCc1cccc(O)c1C(=O)O (centres undefined) | 27.5 | 99.2 | – | – | – | 85.5
10 | CCCCCCCCCCCCCCCc1cccc(O)c1 [3-pentadecylphenol] | – | – | – | 65.6 | – | 23.6
11 | CCCCCCCCCCCCCCCc1cccc(O)c1O | – | – | – | – | – | 90.4
12 | CC(C)CCCCCCCCCCCCCc1cccc(O)c1C(=O)O | 26.7 | 44.1 | – | – | – | 24.8
13 | CCCCCCCCCCc1cccc(O)c1 | 8.1 | – | – | 17.4 | – | 19.1
14 | CCCCCCCCCCc1cccc(O)c1C(=O)O | 43.1 | – | – | – | – | –
